As usually defined, the IC50 is the concentration at which inhibition is half-maximal. High values mean weaker potency, low ones greater potency. What is called Tmax is the time from dosing to the highest level. The Cmax is the peak of the concentration-time curve.

The text below walks through data of patent US20250145576A1, “CATHEPSIN K INHIBITOR, AND PREPARATION METHOD THEREFOR AND USE THEREOF” (SHANDONG NEW TIME PHARMACEUTICAL CO., LTD., priority 2022, published 2025).

Like-named read-outs stand apart in the source and are kept apart here.

One series deals with Cathepsin K (Homo sapiens (Human), UniProt P43235). Description: Cat K inhibitor screening kit, AFC substrate fluorescence. It is filed as biochemical. As to the method:
Reagent information: Cat K inhibitor screening kit: batch number, 6L23K01500; supplier, BiVision. Drug preparation: compounds were dissolved in DMSO and prepared into 10 mM stock solutions. When in use, the stock solutions were prepared into the required concentrations by using a buffer.
Cathepsin K (CTSK, EC 3.4.22.38) is a lysosomal cysteine protease, participates in osteoclastic bone remodeling and resorption, and can further degrade collagen, gelatin and elastin. The cathepsin K inhibitor screening kit from Biovision uses the ability of the active cathepsin K to cleave a synthetic AFC-based peptide substrate to release AFC and the AFC can be easily quantified by using a fluorometer or fluorescent microplate reader. In the presence of a specific cathepsin K specific inhibitor, the cleavage of the substrate is reduced/eliminated, resulting in a reduction or complete loss of AFC fluorescence. The simple and high-throughput adaptive assay kit can be used to screen/study/characterize a potential inhibitor of the cathepsin K.
20 μL of a buffer, a Cat K inhibitor and test compounds (1 μM and 10 μM) were added to 96-well plates to serve as an EC well, an IC well and an S well, respectively; 50 μL of a Cat K enzyme solution was added into all the wells respectively and the mixture was incubated for 10-15 min at room temperature to establish an enzyme inhibitor complex; 30 μL of a Cat K substrate solution was added into all the wells and the mixture was incubated for 30-60 min at room temperature; and the final volume of the reaction was 100 μL.
The screening method was the same as 1.1, the concentrations of the test compounds were set between 0.1 nM and 10 μM, 4-5 concentrations were selected for detection, IC50 curves were drawn, and IC50 values were calculated.

The next series has as its system Cathepsin S. As to the kind of experiment: Screening of Cathepsin S, fluorescence. It is filed as biochemical. The conditions noted are these: >> inhibition rate did not exceed 20% at test concentration; > greater than 35%; ≈ about 50%; < less than 50%. The method, then: 10 μL of a buffer, a Cat S inhibitor and test compounds (1 μM and 10 μM) were added to 96-well plates to serve as an EC well, an IC well and an S well, respectively; 50 μL of a […] was added into all the wells respectively and the mixture was incubated for 10-15 min at room temperature to establish an enzyme inhibitor complex; 40 μL of a Cat S substrate solution was added into all the wells and the mixture was incubated for 30-60 min at room temperature; and the final volume of the reaction was 100 μL.
(§1) The screening method was the same as above, the concentrations of the test compounds were set between 0.1 nM and 10 μM, 4-5 concentrations were selected for detection, IC50 curves were drawn, and IC50 values were calculated.

For another series, the target named is Cathepsin B (Homo sapiens (Human), UniProt P07858). As to the kind of experiment: Screening of Cathepsin B, fluorescence. The note with it: >> inhibition rate did not exceed 20% at test concentration; > greater than 35%; ≈ about 50%; < less than 50%. Format: biochemical. The method, then: 10 μL of a buffer, a Cat B inhibitor and test compounds (1 μM and 10 μM) were added to 96-well plates to serve as an EC well, an IC well and an S well, respectively; 50 μL of a Cat B enzyme solution was added into all the wells respectively and the mixture was incubated for 10-15 min at room temperature to establish an enzyme inhibitor complex; 40 μL of a Cat B substrate solution was added into all the wells and the mixture was incubated for 30-60 min at room temperature; and the final volume of the reaction was 100 μL.
as §1

A further series deals with RAW264.7 cells. Description: Osteoclast differentiation of RAW264.7 cells induced by RANKL, TRAP staining. It is filed as cell-based. The note with it: for osteoclastogenesis compared with model group (in words): K29 at 1 μM and 10 μM, K31 at 100 nM and 500 nM. As to the method:
RAW264.7 cells were inoculated at a density of 1×10^5/well in 96-well plates and cultured in DMEM containing 10% fetal bovine serum and 1% penicillin/streptomycin. The cells were cultured in a constant-temperature incubator containing 5% CO2 at 37° C. 100 ng/mL of a RANKL inducing solution was added into each well of the administration groups and a model group to culture osteoclasts, the solution (containing RANKL) was changed every 2-3 days, inhibitor working solutions with different concentrations were added into the administration groups after the solution was changed for the 3rd time, a PBS working solution with the same volume was added into the model group, and the cells were continuously cultured for 24 h; and in the control group, the RANKL inducing solution and the inhibitor working solution were not added, and the PBS working solution with the same total volume was added. A culture supernatant was removed, the cells were rinsed 3 times with PBS and stained with a TRAP staining kit, and the multinucleated osteoclasts were observed under an optical microscope and counted.

On the set-up of series [1]: species or system SD rats. The note with it: rat, in vivo. As to the method:
• Chromatographic column: […] Electrospray ionization (ESI); ion spray voltage: 3,500 V; ion source temperature: 300° C.; auxiliary gas: 45 Arb; and sheath gas: 10 Arb. • Intravenous intraperitoneal administration solution: prepared with 0.5% HS-15 normal saline solution with the concentration of 0.2 mg/mL; and • intragastric administration suspension: ground and suspended with 0.5% CMC-Na aqueous solution with the concentration of 0.5 mg/mL. Each administration was tested using 2 SD rats per compound. The two compounds […] were subjected to intravenous injection and intragastric administration respectively. […] All blood samples were anticoagulated by heparin and centrifuged for 10 min at 4,000 g. The supernatant plasma was taken for cryopreservation to be tested. 50 μL of the plasma sample was taken, 150 μL of acetonitrile was added, the mixture was evenly mixed by vortex and centrifuged at 9,100 g for 10 min, and a supernatant was taken and 2 μL of the supernatant was injected and detected on a machine.

Sequence of Cathepsin K (P43235 115-329): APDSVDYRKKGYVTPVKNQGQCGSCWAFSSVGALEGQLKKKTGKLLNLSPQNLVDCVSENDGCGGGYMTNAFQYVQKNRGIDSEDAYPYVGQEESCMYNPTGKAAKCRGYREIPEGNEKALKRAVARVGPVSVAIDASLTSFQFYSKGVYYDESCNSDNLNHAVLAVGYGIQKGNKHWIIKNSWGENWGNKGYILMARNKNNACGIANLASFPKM

With `CN1CCN(c2ccc(CN(CC(C)(C)C)c3nccc(C#N)n3)cc2)CC1` [Compound K1, 2-[(2,2-dimethylpropyl){[4-(4-methylpiperazin-1-yl)phenyl]methyl}amino]pyrimidine-4-carbonitrile], the figures for the IC50 at Cathepsin K and on Cathepsin K (stated in text) were 0.01 to 0.1 µM and less than 0.1 µM, respectively. In addition, in the series with Cathepsin S, the “Cat S/K ratio of inhibitory activities” value is on record as greater than 800. Besides, the “Cat B/K ratio of inhibitory activities” value at Cathepsin B is >1,600.
`CC(C)(C)CN(Cc1ccc(-c2ccccc2)cc1)c1nccc(C#N)n1` [Compound K2, 2-[(2,2-dimethylpropyl)[(4-phenylphenyl)methyl]amino]pyrimidine-4-carbonitrile] had an IC50 against Cathepsin K of 0.1 to 0.5 µM. For the same compound, the “Cat S/K ratio of inhibitory activities” value with Cathepsin S is >>2,100. In addition, on Cathepsin B, the “Cat B/K ratio of inhibitory activities” value was >>2,100.
For `CC(C)(C)CN(Cc1ccc(-c2ccc(S(C)(=O)=O)cc2)cc1)c1nccc(C#N)n1` [Compound K6, 2-[(2,2-dimethylpropyl) ({4-[4-(methylsulfonyl)phenyl]phenyl}methyl)amino]pyrimidine-4-carbonitrile], at Cathepsin K, the IC50 lay in the range of 0.1 to 0.5 µM. Besides, the “Cat S/K ratio of inhibitory activities” value with Cathepsin S was >>3,300. For the same compound, the “Cat B/K ratio of inhibitory activities” value at Cathepsin B is >>3,300.
In the case of `CC(C)(C)CN(Cc1ccc(-c2ccc(C#N)s2)cc1)c1nccc(C#N)n1` [Compound K7, 2-({[4-(5-cyanothiophen-2-yl)phenyl]methyl}(2,2-dimethylpropyl)amino)pyrimidine-4-carbonitrile], on Cathepsin K, the IC50 is 0.1 to 0.5 µM.
Same read-out and setting: next, `Cc1ccc(-c2ccc(CN(CC(C)(C)C)c3nccc(C#N)n3)cc2)s1` [Compound K10, 2-[(2,2-dimethylpropyl){[4-(5-methylthiophen-2-yl)phenyl]methyl}amino]pyrimidine-4-carbonitrile]: 0.1 to 0.5 µM.
For `CN1CCN(c2ccc(-c3ccc(CN(CC(C)(C)C)c4nccc(C#N)n4)cc3)cc2)CC1` [Compound K13, 2-[(2,2-dimethylpropyl) ({4-[4-(4-methylpiperazin-1-yl)phenyl]phenyl}methyl)amino]pyrimidine-4-carbonitrile], the concentration for half-maximal inhibition (IC50) against Cathepsin K and on Cathepsin K (stated in text) was less than 0.01 µM throughout.
Take `CN1CCN(c2ccc(-c3ccc(CN(CC4CCCCC4)c4nccc(C#N)n4)cc3)cc2)CC1` [Compound K15, 2-[(cyclohexylmethyl) ({4-[4-(4-methylpiperazin-1-yl)phenyl]phenyl}methyl)amino]pyrimidine-4-carbonitrile]: the IC50 against Cathepsin K and on Cathepsin K (stated in text) was less than 0.01 µM each time. For the same compound, the “Cat S/K ratio of inhibitory activities” value in the series with Cathepsin S is “≈7,460”. Further, at Cathepsin B, the “Cat B/K ratio of inhibitory activities” value is reported as >15,000.
The compound `CS(=O)(=O)c1ccc(-c2ccc(CN(CC3CCCCC3)c3nccc(C#N)n3)cc2)cc1` [Compound K16, 2-[(cyclohexylmethyl) ({4-[4-(methylsulfonyl)phenyl]phenyl}methyl)amino]pyrimidine-4-carbonitrile] gave a half-maximal inhibitory concentration (IC50) on Cathepsin K of 0.1 to 0.5 µM. Besides, the “Cat S/K ratio of inhibitory activities” value with Cathepsin S is reported as >>3,300. Also, the “Cat B/K ratio of inhibitory activities” value on Cathepsin B is reported as >>3,300.
`CC(C)(C)CN(Cc1ccc(-c2cscn2)cc1)c1nccc(C#N)n1` [Compound K17, 2-(neopentyl(4-(thiazol-4-yl)benzyl)amino)pyrimidine-4-carbonitrile] showed a half-maximal inhibitory concentration (IC50) on Cathepsin K of 0.1 to 0.5 µM.
Same read-out and setting: with `O=C1COCC1NC(=O)[C@@H]1CCCC[C@H]1C(=O)N1CCc2c([nH]c3c(F)cccc23)C1` (stereo partly drawn) [Compound K19, (1R,2R)-2-(8-fluoro-2,3,4,9-tetrahydro-1H-pyrido[3,4-b]indole-2-carbonyl)-N-(4-oxotetrahydrofuran-3-yl)cyclohexane-1-carboxamide] the figure was 0.01 to 0.1 µM.
Turning to `COc1cccc2c3c([nH]c12)CCN(C(=O)[C@@H]1CCCC[C@H]1C(=O)N[C@H]1COCC1=O)C3` [Compound K29, (1R,2R)-2-(6-methoxy-2,3,4,5-tetrahydro-1H-pyrido[4,3-b]indole-2-carbonyl)-N—(S)-(4-oxotetrahydrofuran-3-yl)-cyclohexane-1-carboxamide], the Number of osteoclasts in the series on RAW264.7 cells (1 μM) came to 13. Besides, in the series on RAW264.7 cells (10 μM), the Number of osteoclasts was 11.25 and the “osteoclastogenesis (in words)” value is “obviously inhibited the osteoclastogenesis”. In addition, the “osteoclastogenesis compared with model group (in words)” value with RAW264.7 cells is “tendency to inhibit osteoclastogenesis”. The compound also registered a F in series [1] of 62.1%. The Tmax in series [1] (iv, 1 mg/kg) is 1.98 min. Further, in series [1] (po), the Bioavailability % is 62.1%, the CLz was found to be 26.7 mL/min/kg, the Cmax was 1,285 ng/mL and the time to peak (Tmax) is 15 min. In series [1] (po), this compound gave a Vz of 3.83 L/kg and a t1/2z of 99 min. Moreover, the time of peak concentration (Tmax) in series [1] (po, 5 mg/kg) is 15 min.
`COc1cc(F)cc2c3c([nH]c12)CCN(C(=O)[C@@H]1CCCC[C@H]1C(=O)N[C@H]1COCC1=O)C3` [Compound K31, (1R,2R)-2-(8-fluoro-6-methoxy-2,3,4,5-tetrahydro-1H-pyrido[4,3-b]indole-2-carbonyl)-N—(S)-(4-oxotetrahydrofuran-3-yl)-cyclohexane-1-carboxamide] showed a Number of osteoclasts in the series with RAW264.7 cells (100 nM) of 13.25. In addition, the Number of osteoclasts in the series with RAW264.7 cells (500 nM) is recorded as 14. Further, the “osteoclastogenesis compared with model group (in words)” value with RAW264.7 cells is “tendency to inhibit osteoclastogenesis”. The compound also yielded a F in series [1] of 51.0%. Also, the Tmax in series [1] (iv, 1 mg/kg) was 1.98 min. Moreover, in series [1] (po), the Bioavailability % was 51.0%, the CLz was found to be 27.8 mL/min/kg, the maximum concentration (Cmax) is 936 ng/mL and the Tmax was found to be 15 min. In series [1] (po), this compound gave a Vz of 4.38 L/kg and a t1/2z of 109 min. Further, in series [1] (po, 5 mg/kg), the time to peak (Tmax) stood at 15 min.
Turning to `CC(C)(F)C[C@H](N[C@@H](c1ccc(-c2ccc(S(C)(=O)=O)cc2)cc1)C(F)(F)F)C(=O)NC1(C#N)CC1` [Odanacatib, reference compound], the “Cat S/K ratio of inhibitory activities” value with Cathepsin S is listed as less than 290. For the same compound, on Cathepsin B, the “Cat B/K ratio of inhibitory activities” value is greater than 590.
